Assay results reported in patent US4814341A, “2-guanidino-4-(2-furyl) thiazoles as antiulcer agents” (priority 1988, dated 1989).
Where a name gives a salt, the structure may show the parent alone.

What was measured:
[1] = system: male rats; assay: Inhibition of ethanol-induced ulceration in rats; format: in vivo; conditions: oral dose of 30 mg/kg, fifteen minutes prior to oral absolute ethanol (1.0 ml); ulcer index vs controls
Description: The antiulcer activity of the products of this invention was determined by an ethanol-induced rat ulcer assay. In this test, overnight fasted male rats are given drug (at 30 or 3 mg/kg) or water orally fifteen minutes prior to an orally administered dose of absolute ethanol (1.0 ml.). One hour after the ethanol challenge the animals (8/group) are killed and the stomachs examined for the presence of lesions. After sacrifice the abdomen is opened and a locking hemostat placed at the pylorus. Six ml. of a 4% solution of formaldehyde is injected into the stomach with a gastric feeding tube and a second locking hemostat is used to seal the esophagus. The stomach is removed, opened along the greater curvature and examined for ulceration.
The scoring system used to quantitate the ethanol-induced lesions is given below.
For each group of animals an ulcer index is calculated as follows: EXAMPLE 8 (Cont.)
Ulceration Index=(the sume of the scores of the group)×(the sum of the number of ulcers in the group)×(the fraction of the group havnng any incidence of ulceration).
The percentage inhibition of ulcers is calculated as follows:
% Inhibition=100×[(ulcer index controls) - (ulcer index drug-treated)][…](ulcer index controls).

[2] = system: conscious Heidenhain pouch dogs; assay: Gastric acid antisecretory activity, pentagastrin-stimulated acid output; format: in vivo; conditions: 0.1 mg/kg intravenously, overnight-fasted Heidenhain pouch dogs, lowest acid output after drug vs mean before drug
Description: The gastric acid antisecretory activity of compounds of the present invention was determined in overnight-fasted, conscious Heidenhain pouch dogs as follows:
Pentagastrin (Pentavlon-Ayerst) is used to stimulate acid output by continuous infusion into a superficial leg vein at doses earlier determined to stimulate near maximal acid output from the gastric pouch. Gastric juice is collected at 30 minute intervals following the start of a pentagastrin infusion and measured to the nearest 0.1 ml. Ten collections are taken for each dog during an experiment. Acid concentration is determined by titrating 1.0 ml. of gastric juice to pH 7.4 with 0.1N sodium hydroxide using an Autoburette and a glass electrode pH meter (Radiometer).
Drug or vehicle is given intravenously or orally 90 minutes following the start of the pentagastrin infusion, at a dose of 2 mg/kg or less. Gastric acid antisecretory effects are calculated by comparing the lowest acid output after drug administration with the mean acid output immediately before drug.

[3] = target: T1, histamine H2-receptor (Cavia porcellus, UniProt P47747); assay: Histamine-H2 antagonist activity in isolated right atria; format: cell-based, Guinea pigs; conditions: guinea pig right atria, histamine dose-response, Krebs-Henseleit buffer pH 7.4, 32°C; read-out: pA2 (converted)
T1 construct: the heart removed and the right atria dissected free; from tissue; host or cells: guinea pig isolated right atria
Description: The histamine-H2 antagonist activity of compounds of the present invention was determined by the following procedure:
Guinea pigs are killed rapidly with a blow to the head, the heart removed and the right atria dissected free. Atria are suspended, isometrically, in a temperature-controlled (32°±2° C.) tissue bath (10 ml.) containing oxygenated (95% O2; 5% CO2) Krebs-Henseleit buffer (pH 7.4) and are allowed to stabilize approximately one hour during which time the tissue bath is flushed several times. Individual atrial contractions are followed with a force-displacement transducer connected to a cardiotachometer and Grass polygraph recorder. After obtaining a dose-response curve to histamine, the bath containing each atrium is flushed several times with fresh buffer and the atria re-equilibrated to basal rates. Following the return to basal rate, test compounds are added at selected final concentrations and the histamine dose-response curve is again determined in the presence of antagonist. Results are expressed as dose-ratios, the ratio of histamine concentrations required to produce one-half of maximal stimulation in the presence and absence of antagonist, and the apparent dissociation constant of the H2 -receptor antagonist pA2, is determined.

T1 sequence (P47747 whole entry): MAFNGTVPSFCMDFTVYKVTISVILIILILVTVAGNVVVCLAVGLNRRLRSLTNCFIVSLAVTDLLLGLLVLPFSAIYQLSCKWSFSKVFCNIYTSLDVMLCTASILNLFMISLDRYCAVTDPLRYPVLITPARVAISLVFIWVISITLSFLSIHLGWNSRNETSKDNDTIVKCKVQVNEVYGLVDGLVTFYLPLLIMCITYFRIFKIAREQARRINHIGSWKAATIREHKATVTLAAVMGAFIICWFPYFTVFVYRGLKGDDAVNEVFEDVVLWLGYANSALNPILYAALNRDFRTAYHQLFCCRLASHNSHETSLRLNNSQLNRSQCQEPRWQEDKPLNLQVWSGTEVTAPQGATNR

SMILES: CCCCCCN(C)Cc1ccc(-c2csc(NC(=N)N)n2)o1 [3 (2HBr salt), 2-Guanidino-4-(5-[N-n-hexyl-N-methylaminomethyl]-2-furyl)thiazole]
- inhibition of ethanol-induced ulceration [1]: 49%
- inhibition (gastric acid antisecretory effect) [2]: 24%
- Kb [3]: 100 nM

SMILES: CCCCCCNC(=N)Nc1nc(-c2ccc(CN(C)C)o2)cs1 [4 (2HBr salt), 2-(3-n-Hexylguanidino)-4-(5-[N,N-dimethylaminomethyl]-2-furyl)thiazole]
- inhibition of ethanol-induced ulceration [1]: 93%
- inhibition (gastric acid antisecretory effect) [2]: 38%
- Kb [3]: 1000 nM

SMILES: Br.Br.CN(C)Cc1ccc(-c2csc(NC(=N)N)n2)o1 [Example 2, 2-Guanidino-4-(5-[N,N-dimethylaminomethyl]-2-furyl)thiazole Dihydrobromide]
- inhibition of ethanol-induced ulceration [1]: 7%
- inhibition (gastric acid antisecretory effect) [2]: 44%
- Kb [3]: 20 nM
